The source of these data is patent EP4692079A1, “CYP11A1 INHIBITOR AND USE THEREOF” (priority 2023, dated 2024).

The AUC(0-t) is exposure summed from dosing to a finite time, without extrapolation to infinity. Read a low AUC(0-t) as low exposure. The half-life is the time in which the quantity being followed falls by half. Read a high half-life as slow decline. By clearance is commonly meant the volume of plasma or blood freed of the substance per unit of time. A higher clearance goes with a high capacity for elimination. Usually IC50 stands for the concentration at which inhibition is half-maximal.

The test system of series [1] is testosterone level in NCI-H295R cells. The series can be described thus: cells. The format is cell-based. Particulars: Homo sapiens, NCI-H295R, 72 h; for IC50: read-out: Testosterone level in H295R (Elisa) IC50 nM. The method, then: The purpose of the experimental study was intended to detect the testosterone level in the NCI-H295R cells by adopting the Enzyme linked immunosorbent assay (ELISA), so as to evaluate the inhibitory effects of the compounds on the testosterone level in the NCI-H295R cells.
The H295R cells were purchased from ATCC, the cell complete medium contained DMEM: F12+ 10% FBS +0.00625 mg/ml insulin +0.00625 mg/ml transferrin+6.25 ng/ml selenium +1.25 mg/ml BSA+0.00535 mg/ml linoleic acid, and the cells were cultured in a 37°C, 5% CO2 incubator. The cells in the exponential growth phase were collected, and cultured in a cytokine-free medium (phenol red 1640-free +1% PS+10% css FBS+1.25 mg/ml BSA +0.00625 mg/ml insulin + 0.00625 mg/ml transferrin+6.25 ng/ml selenium+0.00535 mg/ml linoleic acid) for three days. The cells in the exponential growth phase were collected on the third day. The cell suspension was adjusted with a cytokine-free medium to a corresponding concentration and plated at 60000 cells/well, with the volume being 90 µL/well. Subsequently, 10 µL of the compounds at different concentrations was added and the plate was incubated in a CO2 incubator for three days. After the incubation was completed, according to the operation instructions for testosterone Elisa kit (Beyotime, PT872), 50 µL of the cell culture supernatant was collected from each well and centrifuged at 500 g for 5 min at room temperature and then the resulting supernatant was collected. The samples were added to the corresponding wells at 25 µl/well, and then formulated horseradish peroxidase labelled testosterone was added at 75 µl/well. The mixture was fully mixed for 10 seconds. The reaction wells were sealed with a plate-sealing film (white) and the mixture was incubated at room temperature in the dark for 120 min. The plate was washed three times with a volume of 300 µl per well, and then placed onto thick absorbent paper and dried. Chromogenic reagent TMB solution was added at 100 µl/well. The reaction wells were sealed with a plate-sealing film (white) and the mixture was incubated at room temperature in the dark for 15-20 min. Subsequently, a termination solution was added at 50 µl/well, and after the mixture was fully mixed, the absorbance value OD450 was immediately measured. The absorbance readings were processed using Graphpad Prim 8.0 software and S-shaped concentration curves were plotted and the IC50 values were calculated using a four-parameter non-linear regression model.

Series [2] has as its system pregnenolone level in NCI-H295R cells. The series can be described thus: cells. Format: cell-based. Particulars: Homo sapiens, 72 h; for inhibition at 0.1 µM: read-out: Pregnenolone level in H295R (Elisa) inh.% 100 nM; for inhibition at 1 µM: read-out: Pregnenolone level in H295R (Elisa) inh.% 1000 nM; for IC50: read-out: Pregnenolone level in H295R (Elisa) IC50 nM. The procedure: 2. The purpose of the experimental study was intended to detect the pregnenolone level in the NCI-H295R cells by adopting the Enzyme linked immunosorbent assay (ELISA), so as to evaluate the inhibitory effects of the compounds on the pregnenolone level in the NCI-H295R cells.
The H295R cells were purchased from ATCC (CRL-2128), the cell complete medium contained DMEM: F12+ 10% FBS +0.00625 mg/ml insulin+0.00625 mg/mL transferrin+6.25 ng/mL selenium+1.25 mg/mL BSA+0.00535 mg/mL linoleic acid, and the cells were cultured in a 37°C, 5% CO2 incubator. The cells in the exponential growth phase were collected, and cultured in a cytokine-free medium (phenol red 1640-free +1% PS+10% css FBS+1.25 mg/mL BSA +0.00625 mg/mL insulin+0.00625 mg/mL transferrin+6.25 ng/mL selenium+0.00535 mg/mL linoleic acid) for three days. The cells in the exponential growth phase were collected on the third day. The cell suspension was adjusted with a cytokine-free medium to a corresponding concentration and plated at 60000 cells/well, with the volume being 90 µL/well. Subsequently, 10 µL of the compounds at different concentrations was added and the plate was incubated in a CO2 incubator for three days. After the incubation was completed, the cell culture supernatant was collected and centrifuged at 2°C-8°C at 800×g for 10 min. The resulting supernatant was collected. Determination was carried out according to the operation instructions for pregnenolone Elisa kit (Antibodies-A73791), and the OD450 signal was read.
2.1 Standard curve plotting. The standard concentration was taken as the abscissa and the OD450 value as the ordinate, the coordinate points of various standards were connected with a smooth line and a curve was fitted according to the four parameter logistic (4-PL) method.
2.2 Sample quantification: The corresponding concentration (CONC) of testosterone/pregnenolone in the sample was calculated using the absorbance value of the sample and the standard curve. According to formula (1), the inhibition rate of the compound at various concentrations was calculated, and S-shaped concentration curves were plotted and the IC50 values (i.e., concentration of the compound at which the inhibition rate was 50%) were calculated using a three parameter non-linear regression model in Graphpad Prim 8.0 software. CONC cpd was the concentration of the treated group, and CONC ctrl was the average concentration value of the solvent control group. Inhibition rate% = 100%−CONCcpd /CONCctrl × 100% [formula] Table 3 Inhibitory effects of compounds on pregnenolone level in NCI-H295R cells

Series [3] can be described thus: Pharmacokinetic test in mice. Format: in vivo. Particulars: mouse, male ICR mice, plasma; for Vd: read-out: Vdss. The method, then:
4.1. Experimental animals: Male ICR mice, 20-25 g, 6 mice/compound, were purchased from Chengdu Dossy Experimental Animals Co., Ltd.
4.2 Experimental design: on the day of the experiment, the ICR mice were randomly grouped according to their body weights. […] Table 6 Administration information
Before and after administration, 0.06 mL of blood was taken from the orbit under isoflurane anaesthesia and placed in an EDTAK2 centrifuge tube. The tube was centrifuged at 5000 rpm at 4°C for 10 min, and plasma was collected. […] Before analysis and detection, all samples were stored at -80°C, and the samples were quantitatively analysed by LC-MS/MS.

Where [4] appears, read: read-out: Testosterone level in H295R (Elisa) inh.% 100 nM.
Setting [5] is: read-out: Testosterone level in H295R (Elisa) inh.% 1000 nM.
Setting [6] is: po, intragastric administration (10 mg/kg).
Setting [7] is: intravenous administration (2.5 mg/kg).
The mark [8] stands for this setting: read-out: Testosterone level in H295R (Elisa) inh.% 100 nM, 100 nM compound, NCI-H295R cells, three days incubation.
The mark [9] stands for this setting: read-out: Testosterone level in H295R (Elisa) inh.% 1000 nM, 1000 nM compound, NCI-H295R cells, three days incubation.

Molecules are shown by their SMILES. Like-named read-outs stand apart in the source and are kept apart here.

In the case of `O=C(N[C@H]1CC[C@H](/C=C/c2coc(CN3Cc4ccc(C(F)(F)F)cc4C3)cc2=O)CC1)[C@@H]1CC1(F)F` [Compound 89], the inhibition at 0.1 µM in series [1] (setting [4]) was determined as 75%. Besides, the inhibition at 1 µM in series [1] (setting [5]) turned out to be 87%. Further, in series [2], the inhibition at 0.1 µM turned out to be 41.6% and the inhibition at 1 µM turned out to be 64.9%. For the same compound, in series [3] (setting [6]), the AUC(0-t) turned out to be 52500 ng·h/mL and the half-life is 8.11 h. Further, in series [3] (setting [7]), the area under the curve AUC(0-t) came out at 8460 ng·h/mL, the clearance is 4.9 mL/min/kg, the half-life was 5.1 h and the Vd amounted to 1.63 L/kg.

For `O=C(N[C@H]1CC[C@H](COc2coc(CN3Cc4ccc(C(F)(F)F)cc4C3)cc2=O)CC1)C1CC1` [Compound 15], the IC50 in series [1] was found to be 13 nM. The inhibition at 0.1 µM in series [1] (setting [8]) worked out at 51%. Moreover, the inhibition at 1 µM in series [1] (setting [9]) stood at 84.2%. In series [2], the IC50 was 382 nM. In series [3] (setting [6]), the AUC(0-t) worked out at 25400 ng·h/mL and the half-life was 3.19 h. For the same compound, in series [3] (setting [7]), the area under the curve AUC(0-t) is 6700 ng·h/mL, the clearance turned out to be 6.21 mL/min/kg, the half-life is 3.54 h and the Vd turned out to be 1.61 L/kg.

Turning to `O=C(N[C@H]1CC[C@H](CCc2coc(CN3Cc4ccc(C(F)(F)F)cc4C3)cc2=O)CC1)C1CC(F)(F)C1` [Compound 95], the inhibition at 0.1 µM in series [1] (setting [8]) was determined as 57%; in series [2] it was 50%. The inhibition at 1 µM worked out at 81% in series [1] (setting [9]) and 66% in series [2].

Consider `O=C(N[C@H]1CC[C@H](/C=C/c2coc(CN3Cc4ccc(C(F)(F)F)cc4C3)cc2=O)CC1)C1CC(F)(F)C1` [Compound 88], for which the half-maximal inhibitory concentration (IC50) in series [1] amounted to 59 nM. Also, the inhibition at 0.1 µM in series [1] (setting [4]) was 76%. Besides, the inhibition at 1 µM in series [1] (setting [5]) was determined as 86%. In series [2], the 50% inhibitory concentration (IC50) is 94 nM, the inhibition at 0.1 µM came to 41.6% and the inhibition at 1 µM was found to be 64.5%. In series [3] (setting [6]), the exposure AUC(0-t) was determined as 23600 ng·h/mL and the half-life is 4.48 h. Also, in series [3] (setting [7]), the area under the curve AUC(0-t) amounted to 8550 ng·h/mL, the clearance is 4.82 mL/min/kg, the half-life is 4.49 h and the Vd amounted to 1.54 L/kg.

On to `COC1CN(CC(=O)N2CCC(/C=C/c3coc(CN4Cc5ccc(C(F)(F)F)cc5C4)cc3=O)CC2)C1` [Compound 18], for which, in series [1], the 50% inhibitory concentration (IC50) turned out to be 100 nM. Moreover, the inhibition at 0.1 µM amounted to 80.8% in series [1] (setting [8]) and 40.7% in series [2]. Further, the inhibition at 1 µM in series [1] (setting [9]) is 92.5%; in series [2], 50.5%.

`O=C(N[C@H]1CC[C@H](/C=C/c2coc(CN3Cc4ccc(C(F)(F)F)cc4C3)cc2=O)CC1)[C@H]1CC1(F)F` [Compound 90]: in series [1], the IC50 was determined as 73 nM. Besides, the inhibition at 0.1 µM in series [1] (setting [4]) stood at 80%. Further, the inhibition at 1 µM in series [1] (setting [5]) was determined as 85%. In addition, in series [2], the IC50 is 119 nM, the inhibition at 0.1 µM worked out at 43.4% and the inhibition at 1 µM was determined as 67%. For the same compound, in series [3] (setting [6]), the AUC(0-t) came to 40600 ng·h/mL and the half-life was 6.36 h. Besides, in series [3] (setting [7]), the AUC(0-t) was 10600 ng·h/mL, the clearance came out at 3.67 mL/min/kg, the half-life is 6.73 h and the Vd amounted to 1.73 L/kg.

Turning to `C=C1CC(C(=O)N[C@H]2CC[C@H](/C=C/c3coc(CN4Cc5ccc(C(F)(F)F)cc5C4)cc3=O)CC2)C1` [Compound 116], the inhibition at 0.1 µM in series [1] (setting [8]) came to 60%; in series [2] it was 48%. For the same compound, the inhibition at 1 µM was found to be 66% in series [1] (setting [9]) and 75% in series [2].

On to `[2H]C([2H])([2H])C(=O)N[C@H]1CC[C@H](/C=C/c2coc(CN3Cc4ccc(C(F)(F)F)cc4C3)cc2=O)CC1` [Compound 80], for which the inhibition at 0.1 µM in series [1] (setting [8]) was found to be 71%. For the same compound, in series [1] (setting [9]), the inhibition at 1 µM was 84%. Moreover, in series [2], the IC50 was 190 nM, the inhibition at 0.1 µM was 38.1% and the inhibition at 1 µM turned out to be 59.1%.
